Test results reported in patent US20250108032A1, “METHODS OF TREATING TYPE 1 DIABETES AND KIDNEY DISEASE” (LEXICON PHARMACEUTICALS, INC., priority 2023, published 2025).

Experiments:
T1D patients = details: cited from earlier work
[1] = test system: patients with type 1 diabetes receiving insulin therapy (overall and CKD cohorts); experiment: inTandem3 phase 3, double-blind trial, sotagliflozin 400 mg per day vs placebo for 24 weeks; format: in vivo, human; details: for placebo-adjusted systolic blood pressure, least-squared mean change: after 16 weeks; for DKA, HR (95% CI) / Severe hypoglycemia, HR (95% CI): 400 mg/day vs placebo
Method: The in Tandem3 study was a phase 3, double-blind trial conducted at 133 centers worldwide. In the study, 1402 patients with type 1 diabetes who were receiving treatment with insulin therapy (pump or injections) were randomly assigned to receive sotagliflozin (400 mg per day) or placebo for 24 weeks. The primary end point was a glycated hemoglobin level lower than 7.0% at week 24 with no episodes of severe hypoglycemia or diabetic ketoacidosis after randomization. Secondary end points included the change from baseline in glycated hemoglobin level, weight, systolic blood pressure, and mean daily bolus dose of insulin. Specific details of the study were reported in Garg, S. K., et al., “Effects of Sotagliflozin Added to Insulin in Patients with Type 1 Diabetes” N. Engl. J. Med. 2017:377:2337-48.
The rate of severe hypoglycemia was similar in the sotagliflozin group and the placebo group (3.0% [21 patients] and 2.4% [17 patients], respectively). […] The rate of DKA was higher in the sotagliflozin group than in the placebo group (3.0% [21 patients] and 0.6%, respectively). Id. at 2337.
For this invention, data from CKD patients were compared to those of the overall cohort. As shown below, 16% of patients had CKD at baseline: […]

[2] = 400 mg per day, overall population
[3] = 400 mg/day, CKD Cohort N = 115, 24 weeks

In the case of `CCOc1ccc(Cc2cc([C@@H]3O[C@H](SC)[C@@H](O)[C@H](O)[C@H]3O)ccc2Cl)cc1` [sotagliflozin, (2S,3R,4R,5S,6R)-2-(4-chloro-3-(4-ethoxybenzyl)phenyl)-6-(methylthio)tetrahydro-2H-pyran-3,4,5-triol], the albuminuria (T1D patients) is listed as “reduction in albuminuria”, the blood pressure (T1D patients) is listed as “lowered blood pressure” and the eGFR (T1D patients) is listed as “acute change in eGFR”. For the same compound, the hemoconcentration (T1D patients) was “induced mild hemoconcentration”, the “risk of diabetic ketoacidosis (DKA)” value (T1D patients) was “increased” and the “placebo-adjusted systolic blood pressure, least-squared mean change” value ([1]; 400 mg per day, CKD group, SE=1.81) was −7.1 mm Hg. The “placebo-adjusted change in HbA1C, least-squared mean” value ([1]; 400 mg per day, CKD group, after 24 weeks, SE=0.120) was −0.46%, the “placebo-adjusted change in body weight, least-squared mean” value ([1]; 400 mg per day, CKD group, after 24 weeks, SE=0.464) was -2.82 kg and the “number of patients achieving the primary end point” value ([1]; 400 mg per day, of 699 patients) was 200 patients. The “mean daily bolus dose of insulin, least-squares mean change from baseline, difference vs placebo” value [1, 2] was −2.8 units per day, the “proportion of patients achieving the primary end point (glycated hemoglobin lower than 7.0% at week 24 with no severe hypoglycemia or DKA)” value [1, 2] was 28.6% and the “systolic blood pressure, least-squares mean change from baseline, difference vs placebo” value [1, 2] was −3.5 mm Hg. For the same compound, the “glycated hemoglobin, least-squares mean change from baseline, difference vs placebo” value ([1]; 400 mg per day, overall population, 24 weeks) was −0.46 percentage points, the “placebo-adjusted systolic blood pressure, least-squared mean change” value ([1]; 400 mg per day, total, overall population, SE=0.57) was −3.8 mm Hg and the “placebo-adjusted change in body weight, least-squares mean” value ([1]; 400 mg per day, total, overall population, after 24 weeks) was -2.98 kg. For the same compound, the “placebo-adjusted change in HbA1C, least-squared mean” value ([1]; 400 mg per day, total, overall population, after 24 weeks, SE=0.042) was −0.46%, the “DKA, HR (95% CI)” value ([1]; CKD Cohort, 24 weeks) was 3.5 and the “Severe hypoglycemia, HR (95% CI)” value ([1]; CKD Cohort, 24 weeks) was 1.7. The “DKA, HR (95% CI)” value ([1]; Overall Cohort, 24 weeks) was 5.5, the “Severe hypoglycemia, HR (95% CI)” value ([1]; Overall Cohort, 24 weeks) was 1.3 and the “DKA, %” value [1, 3] was “(2.6) %”. The “Severe hypoglycemia, %” value [1, 3] was “(7.0) %” and the “rate of documented hypoglycemia with a blood glucose level of 55 mg per deciliter (3.1 mmol per liter) or below” value ([1]; sotagliflozin group vs placebo group) was “significantly lower”.
